Results on two molecules are retold here after PMC12010006, “Subnanomolar MAS-related G protein-coupled receptor-X2/B2 antagonists with efficacy in human mast cells and disease models” (Signal Transduction and Targeted Therapy, 2025).

Read-outs that look alike come from different tables or passages of the source. Where only a bound is given, the exact number is not on record here.

Holding throughout (type): cell-based
For experiment [1], the target named is T1, MRGPRX2 (Homo sapiens, UniProt Q96LB1).
T1 sequence (Q96LB1 1-330): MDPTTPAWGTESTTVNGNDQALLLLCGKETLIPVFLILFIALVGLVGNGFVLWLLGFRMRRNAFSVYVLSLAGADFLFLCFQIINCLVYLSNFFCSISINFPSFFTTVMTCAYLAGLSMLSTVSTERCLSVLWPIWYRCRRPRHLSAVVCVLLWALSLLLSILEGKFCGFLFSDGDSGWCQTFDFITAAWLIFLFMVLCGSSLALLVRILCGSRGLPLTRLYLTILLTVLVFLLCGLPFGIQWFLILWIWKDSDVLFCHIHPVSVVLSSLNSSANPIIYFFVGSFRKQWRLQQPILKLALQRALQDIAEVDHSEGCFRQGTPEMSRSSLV
As to the kind of experiment: β-arrestin recruitment assay (antagonist mode), β-arrestin-CHO cells recombinantly expressing MRGPRX2. Also noted: expressed in transfected cells.

The target of experiment [2] is T1, MRGPRX2. As to the kind of experiment: β-arrestin assay (agonist mode), β-arrestin CHO cells recombinantly expressing MRGPRX2. As to conditions: for EC50: agonist test, read-out: β-Arrestin assay EC50 ± SEM; for β-Arrestin assay % activation: normalized to CST-14 (EC80 5,000 nM). The text has this:
Eurofins DiscoverX (Fremont, CA, USA) provided engineered Chinese hamster ovary (CHO) cells stably expressing β-arrestin-2 fused to a large β-galactosidase fragment (enzyme acceptor, EA). These CHO-K1-β-arrestin-2 cells were commercially available (93-0164). CHO-K1-β-arrestin-2 cells that additionally expressed MRGPRX1, -2, or -4 fused to the fragment ProLink™ (PK) were also purchased from the same company (93-0919C2, 93-0309C2, and 3-0541C2A, respectively). CHO cells expressing MRGPRX3 were generated as previously […].[31] The cells were grown in F-12 Ham Nutrient Mixture (Life Technologies) supplemented with 10% FBS, 100 U/mL of penicillin, 100 µg/mL of streptomycin (PAN-Biotech), 300 μg/mL of hygromycin B (PAN-Biotech), and 800 μg/mL of gentamicin (PAN-Biotech) at 37 °C and 5% CO2.).
The assays were carried out as previously described.[22] […] After 30 min of incubation at 37 °C and 5% CO2, Cortistatin-14 (CST-14, Bioscience, Bristol, United Kingdom) or another MRGPRX2 agonist that served as a standard agonist was added, and the mixture was incubated for 90 min at 37 °C and 5% CO2. Next, a detection reagent (50 µL, DiscoverX) was added, and the mixture was incubated at room temperature in the dark for 60 min. Chemiluminescence was measured on a Mithras LB 940 plate reader (Berthold Technologies, Bad Wildbad, Germany). The results represent means ± SEM of three to five independent experiments, each in duplicates.
^d β-Arrestin CHO cells recombinantly expressing MRGPRX2
^f Percentage of activation of normalized to CST-14 (EC80 5,000 nM)

Experiment [3] has as its target T1, MRGPRX2. Kind of experiment: Ca2+ mobilization assay, LN229 cells overexpressing MRGPRX2. Also noted: expressed in transfected cells; host or cells: LN229 human glioblastoma cells; plasmid pLXSN-MRGPRX2 (Addgene #213960). The note with it: for Ki: versus CST-14 (EC80 800 nM, EC50 452 nM), Cheng-Prusoff, read-out: Ca2+ assay Ki ± SEM.
[4] abbreviates: versus CST-14 (EC80 1,000 nM, EC50 483 nM), Cheng-Prusoff, read-out: β-Arrestin assay Ki ± SEM.

Turning to `CCCc1c(C)[nH]c2nc3ccccc3n2c1=O` [Compound 1, 2-methyl-3-propylbenzo[4,5]imidazo[1,2-a]pyrimidin-4(1H)-one], the IC50 in experiment [1] (versus CST-14 (EC80 1.0 µM), read-out: IC50, β-arrestin assay) amounted to 2420 ± 220 nM. In addition, the Ki in experiment [1] (setting [4]) came out at 788 ± 143 nM. In experiment [2], the EC50 was over 10000 nM and the “β-Arrestin assay % activation” value amounted to 1%. In addition, in experiment [3], the “agonistic activity in Ca2+ assays” value was “did not show any agonistic activity” and the Ki was found to be 246 ± 125 nM.

For the molecule `CCc1c(C(C)C)[nH]c2nc3cc(F)c(F)cc3n2c1=O` [Compound 24, 3-ethyl-7,8-difluoro-2-isopropylbenzo[4,5]imidazo [1,2-a] pyrimidin-4(1H)-one], the “blockade of MRGPRX2 activation” value in experiment [1] (10 µM, versus CST-14 (1 µM)) is “completely blocked”. Also, the “difference of Ki versus other agonists from the Ki value versus CST-14” value in experiment [1] (all investigated agonists) is reported as under 2 fold. For the same molecule, the Schild plot slope in experiment [1] (versus (R)-ZINC-3573) is listed as 0.891. Also, the IC50 in experiment [1] (versus (R)-ZINC-3573 (EC80 2 µM), read-out: IC50 versus (R)-ZINC-3573, β-arrestin assay) was determined as 11.3 ± 3.1 nM; in experiment [1] (versus SP (EC80 3 µM), read-out: IC50 versus substance P, β-arrestin assay), 30.5 ± 6.3 nM; in experiment [1] (versus clomipramine (EC80 13 µM), read-out: IC50 versus clomipramine, β-arrestin assay) it was 17.2 ± 0.4 nM. The Ki in experiment [1] (versus (R)-ZINC-3573 (EC80 2 µM), read-out: Ki versus (R)-ZINC-3573, β-arrestin assay) came out at 5.44 nM; in experiment [1] (versus C48/80 (EC80 18 µM), read-out: Ki versus compound 48/80, β-arrestin assay), 3.68 nM; in experiment [1] (setting [4]), 6.81 nM; in experiment [1] (versus SP (EC80 3 µM), read-out: Ki versus substance P, β-arrestin assay), 8.82 nM; in experiment [1] (versus clomipramine (EC80 13 µM), read-out: Ki versus clomipramine, β-arrestin assay), 7.04 nM; in experiment [3], 0.142 nM. The Kb in experiment [1] (versus (R)-ZINC-3573, read-out: KB value (Schild plot)) is 7.59 nM; in experiment [1] (versus (R)-ZINC-3573, read-out: pKB value (Schild plot) (converted)), 7.41 nM; in experiment [1] (versus CST-14, read-out: pKB value (Schild plot) (converted)), 6.76 nM. The “mode of action (inhibition type)” value in experiment [1] (versus CST-14 and (R)-ZINC-3573) is “competitive mode of action”. Besides, the “selectivity for MRGPRX2 versus other MRGPRX subtypes” value in experiment [1] (versus MRGPRX1, -X3, -X4) was “at least 1000 fold”. In addition, in experiment [2], the half-maximal effective concentration (EC50) is over 10000 nM. For the same molecule, the “β-Arrestin assay % activation” value in experiment [2] was -1%. For the same molecule, the “fold higher potency compared to the 8-monofluorinated derivative (30)” value in experiment [3] was “about 4 fold”. The “fold increase in potency compared to 10” value in experiment [3] was 7 fold. Also, the “fold increase in potency compared to hit compound 1” value in experiment [3] turned out to be 1870 fold. For the same molecule, the “MRGPRX2 antagonistic potency in Ca2+ assay, in words” value in experiment [3] (versus CST-14) is given as “subnanomolar potencies”.
